Tested on: KM12 cells
Assay: Cell viability assay (CellTiter-Glo) in KM12 cells
Assay type: cell-based
Conditions: Homo sapiens, 72 h; Table 3; KM12 cell viability, CellTiter-Glo, 3 days; read-out: IC50

Compound | IC50
O=C(CN1CCN(c2cccc(-c3cnc4ccc(N5CCC[C@@H]5c5cccc(F)c5)nn34)n2)CC1)NCCOCCOCCOCCOCCOCCNc1cccc2c1C(=O)N(C1CCC(=O)NC1=O)C2=O (stereo partly drawn) [TR-104, N-(17-((2-(2,6-dioxopiperidin-3-yl)-1,3-dioxoisoindolin-4-yl)amino)-3,6,9,12,15-pentaoxaheptadecyl)-2-(4-(6-(6-((R)-2-(3-fluorophenyl)pyrrolidin-1-yl)imidazo[1,2-b]pyridazin-3-yl)pyridin-2-yl)piperazin-1-yl)acetamide] | 8.1 nM
O=C(CN1CCN(c2cccc(-c3cnc4ccc(N5CCC[C@@H]5c5cccc(F)c5)nn34)n2)CC1)NCCOCCOCCNc1cccc2c1C(=O)N(C1CCC(=O)NC1=O)C2=O (stereo partly drawn) [TR-105, N-(2-(2-(2-((2-(2,6-dioxopiperidin-3-yl)-1,3-dioxoisoindolin-4-yl)amino)ethoxy)ethoxy)ethyl)-2-(4-(6-(6-((R)-2-(3-fluorophenyl)pyrrolidin-1-yl)imidazo[1,2-b]pyridazin-3-yl)pyridin-2-yl)piperazin-1-yl)acetamide] | 10.1 nM
O=C(CN1CCN(c2cccc(-c3cnc4ccc(N5CCC[C@@H]5c5cccc(F)c5)nn34)n2)CC1)NCCOCCNc1cccc2c1C(=O)N(C1CCC(=O)NC1=O)C2=O (stereo partly drawn) [TR-106, N-(2-(2-((2-(2,6-dioxopiperidin-3-yl)-1,3-dioxoisoindolin-4-yl)amino)ethoxy)ethyl)-2-(4-(6-(6-((R)-2-(3-fluorophenyl)pyrrolidin-1-yl)imidazo[1,2-b]pyridazin-3-yl)pyridin-2-yl)piperazin-1-yl)acetamide] | 3.8 nM
O=C(CN1CCN(c2cccc(-c3cnc4ccc(N5CCC[C@@H]5c5cccc(F)c5)nn34)n2)CC1)NCCCCNc1cccc2c1C(=O)N(C1CCC(=O)NC1=O)C2=O (stereo partly drawn) [TR-107, N-(4-((2-(2,6-dioxopiperidin-3-yl)-1,3-dioxoisoindolin-4-yl)amino)butyl)-2-(4-(6-(6-((R)-2-(3-fluorophenyl)pyrrolidin-1-yl)imidazo[1,2-b]pyridazin-3-yl)pyridin-2-yl)piperazin-1-yl)acetamide] | 8.4 nM
O=C(CN1CCN(c2cccc(-c3cnc4ccc(N5CCC[C@@H]5c5cccc(F)c5)nn34)n2)CC1)NCCOCCOCCOCCOCCNc1cccc2c1C(=O)N(C1CCC(=O)NC1=O)C2=O (stereo partly drawn) [TR-108, N-(14-((2-(2,6-dioxopiperidin-3-yl)-1,3-dioxoisoindolin-4-yl)amino)-3,6,9,12-tetraoxatetradecyl)-2-(4-(6-(6-((R)-2-(3-fluorophenyl)pyrrolidin-1-yl)imidazo[1,2-b]pyridazin-3-yl)pyridin-2-yl)piperazin-1-yl)acetamide] | 4 nM
O=C(CN1CCN(c2cccc(-c3cnc4ccc(N5CCC[C@@H]5c5cccc(F)c5)nn34)n2)CC1)NCCCNc1cccc2c1C(=O)N(C1CCC(=O)NC1=O)C2=O (stereo partly drawn) [TR-109, N-(3-((2-(2,6-dioxopiperidin-3-yl)-1,3-dioxoisoindolin-4-yl)amino)propyl)-2-(4-(6-(6-((R)-2-(3-fluorophenyl)pyrrolidin-1-yl)imidazo[1,2-b]pyridazin-3-yl)pyridin-2-yl)piperazin-1-yl)acetamide] | 3.6 nM
O=C(CN1CCN(c2cccc(-c3cnc4ccc(N5CCC[C@@H]5c5cccc(F)c5)nn34)n2)CC1)NCCCCCCCNc1cccc2c1C(=O)N(C1CCC(=O)NC1=O)C2=O (stereo partly drawn) [TR-110, N-(7-((2-(2,6-dioxopiperidin-3-yl)-1,3-dioxoisoindolin-4-yl)amino)heptyl)-2-(4-(6-(6-((R)-2-(3-fluorophenyl)pyrrolidin-1-yl)imidazo[1,2-b]pyridazin-3-yl)pyridin-2-yl)piperazin-1-yl)acetamide] | 35.9 nM
O=C(CN1CCN(c2cccc(-c3cnc4ccc(N5CCC[C@@H]5c5cccc(F)c5)nn34)n2)CC1)NCCCCCCNc1cccc2c1C(=O)N(C1CCC(=O)NC1=O)C2=O (stereo partly drawn) [TR-111, N-(6-((2-(2,6-dioxopiperidin-3-yl)-1,3-dioxoisoindolin-4-yl)amino)hexyl)-2-(4-(6-(6-((R)-2-(3-fluorophenyl)pyrrolidin-1-yl)imidazo[1,2-b]pyridazin-3-yl)pyridin-2-yl)piperazin-1-yl)acetamide] | 19.7 nM
O=C1CCC(N2C(=O)c3ccc(NCCOCCOCCC(=O)N4CCN(c5cccc(-c6cnc7ccc(N8CCC[C@@H]8c8cccc(F)c8)nn67)n5)CC4)cc3C2=O)C(=O)N1 (stereo partly drawn) [TR-113, 2-(2,6-Dioxopiperidin-3-yl)-5-((2-(2-(3-(4-(6-(6-((R)-2-(3-fluorophenyl)pyrrolidin-1-yl)imidazo[1,2-b]pyridazin-3-yl)pyridin-2-yl)piperazin-1-yl)-3-oxopropoxy)ethoxy)ethyl)amino)isoindoline-1,3-dione] | 1.3 nM
O=C1CCC(N2C(=O)c3ccc(NCCOCCOCCOCCC(=O)N4CCN(c5cccc(-c6cnc7ccc(N8CCC[C@@H]8c8cccc(F)c8)nn67)n5)CC4)cc3C2=O)C(=O)N1 (stereo partly drawn) [TR-114, 2-(2,6-Dioxopiperidin-3-yl)-5-((2-(2-(2-(3-(4-(6-(6-((R)-2-(3-fluorophenyl)pyrrolidin-1-yl)imidazo[1,2-b]pyridazin-3-yl)pyridin-2-yl)piperazin-1-yl)-3-oxopropoxy)ethoxy)ethoxy)ethyl)amino)isoindoline-1,3-dione] | 16.9 nM
O=C1CCC(N2C(=O)c3ccc(NCCCCC(=O)N4CCN(c5cccc(-c6cnc7ccc(N8CCC[C@@H]8c8cccc(F)c8)nn67)n5)CC4)cc3C2=O)C(=O)N1 (stereo partly drawn) [TR-115, 2-(2,6-Dioxopiperidin-3-yl)-5-((5-(4-(6-(6-((R)-2-(3-fluorophenyl)pyrrolidin-1-yl)imidazo[1,2-b]pyridazin-3-yl)pyridin-2-yl)piperazin-1-yl)-5-oxopentyl)amino)isoindoline-1,3-dione] | 0.9 nM
O=C1CCC(N2C(=O)c3ccc(NCCOCCOCCOCCOCCOCCC(=O)N4CCN(c5cccc(-c6cnc7ccc(N8CCC[C@@H]8c8cccc(F)c8)nn67)n5)CC4)cc3C2=O)C(=O)N1 (stereo partly drawn) [TR-116, 2-(2,6-Dioxopiperidin-3-yl)-5-((18-(4-(6-(6-((R)-2-(3-fluorophenyl)pyrrolidin-1-yl)imidazo[1,2-b]pyridazin-3-yl)pyridin-2-yl)piperazin-1-yl)-18-oxo-3,6,9,12,15-pentaoxaoctadecyl)amino)isoindoline-1,3-dione] | 2 nM
O=C1CCC(N2C(=O)c3ccc(NCCCCCCC(=O)N4CCN(c5cccc(-c6cnc7ccc(N8CCC[C@@H]8c8cccc(F)c8)nn67)n5)CC4)cc3C2=O)C(=O)N1 (stereo partly drawn) [TR-117, 2-(2,6-Dioxopiperidin-3-yl)-5-((7-(4-(6-(6-((R)-2-(3-fluorophenyl)pyrrolidin-1-yl)imidazo[1,2-b]pyridazin-3-yl)pyridin-2-yl)piperazin-1-yl)-7-oxoheptyl)amino)isoindoline-1,3-dione] | 4.3 nM
O=C1CCC(N2C(=O)c3ccc(NCCCCCCCC(=O)N4CCN(c5cccc(-c6cnc7ccc(N8CCC[C@@H]8c8cccc(F)c8)nn67)n5)CC4)cc3C2=O)C(=O)N1 (stereo partly drawn) [TR-118, 2-(2,6-Dioxopiperidin-3-yl)-5-((8-(4-(6-(6-((R)-2-(3-fluorophenyl)pyrrolidin-1-yl)imidazo[1,2-b]pyridazin-3-yl)pyridin-2-yl)piperazin-1-yl)-8-oxooctyl)amino)isoindoline-1,3-dione] | 6.3 nM
O=C1CCC(N2C(=O)c3ccc(NCCOCCC(=O)N4CCN(c5cccc(-c6cnc7ccc(N8CCC[C@@H]8c8cccc(F)c8)nn67)n5)CC4)cc3C2=O)C(=O)N1 (stereo partly drawn) [TR-119, 2-(2,6-Dioxopiperidin-3-yl)-5-((2-(3-(4-(6-(6-((R)-2-(3-fluorophenyl)pyrrolidin-1-yl)imidazo[1,2-b]pyridazin-3-yl)pyridin-2-yl)piperazin-1-yl)-3-oxopropoxy)ethyl)amino)isoindoline-1,3-dione] | 1.6 nM
O=C1CCC(N2C(=O)c3ccc(NCCOCCOCCOCCOCCC(=O)N4CCN(c5cccc(-c6cnc7ccc(N8CCC[C@@H]8c8cccc(F)c8)nn67)n5)CC4)cc3C2=O)C(=O)N1 (stereo partly drawn) [TR-120, 2-(2,6-Dioxopiperidin-3-yl)-5-((15-(4-(6-(6-((R)-2-(3-fluorophenyl)pyrrolidin-1-yl)imidazo[1,2-b]pyridazin-3-yl)pyridin-2-yl)piperazin-1-yl)-15-oxo-3,6,9,12-tetraoxapentadecyl)amino)isoindoline-1,3-dione] | 10 nM
O=C1CCC(N2C(=O)c3ccc(NCCC(=O)N4CCN(c5cccc(-c6cnc7ccc(N8CCC[C@@H]8c8cccc(F)c8)nn67)n5)CC4)cc3C2=O)C(=O)N1 (stereo partly drawn) [TR-121, 2-(2,6-Dioxopiperidin-3-yl)-5-((3-(4-(6-(6-((R)-2-(3-fluorophenyl)pyrrolidin-1-yl)imidazo[1,2-b]pyridazin-3-yl)pyridin-2-yl)piperazin-1-yl)-3-oxopropyl)amino)isoindoline-1,3-dione] | 2.1 nM
O=C1CCC(N2C(=O)c3ccc(NCCCCCC(=O)N4CCN(c5cccc(-c6cnc7ccc(N8CCC[C@@H]8c8cccc(F)c8)nn67)n5)CC4)cc3C2=O)C(=O)N1 (stereo partly drawn) [TR-122, 2-(2,6-Dioxopiperidin-3-yl)-5-((6-(4-(6-(6-((R)-2-(3-fluorophenyl)pyrrolidin-1-yl)imidazo[1,2-b]pyridazin-3-yl)pyridin-2-yl)piperazin-1-yl)-6-oxohexyl)amino)isoindoline-1,3-dione] | 2.7 nM
O=C(CN1CCN(c2cccc(-c3cnc4ccc(N5CCC[C@@H]5c5cccc(F)c5)nn34)n2)CC1)NCCCCNc1ccc2c(c1)C(=O)N(C1CCC(=O)NC1=O)C2=O (stereo partly drawn) [TR-124, N-(4-((2-(2,6-dioxopiperidin-3-yl)-1,3-dioxoisoindolin-5-yl)amino)butyl)-2-(4-(6-(6-((R)-2-(3-fluorophenyl)pyrrolidin-1-yl)imidazo[1,2-b]pyridazin-3-yl)pyridin-2-yl)piperazin-1-yl)acetamide] | 2.8 nM
O=C(CN1CCN(c2cccc(-c3cnc4ccc(N5CCC[C@@H]5c5cccc(F)c5)nn34)n2)CC1)NCCOCCOCCOCCOCCNc1ccc2c(c1)C(=O)N(C1CCC(=O)NC1=O)C2=O (stereo partly drawn) [TR-125, N-(14-((2-(2,6-dioxopiperidin-3-yl)-1,3-dioxoisoindolin-5-yl)amino)-3,6,9,12-tetraoxatetradecyl)-2-(4-(6-(6-((R)-2-(3-fluorophenyl)pyrrolidin-1-yl)imidazo[1,2-b]pyridazin-3-yl)pyridin-2-yl)piperazin-1-yl)acetamide] | 2.8 nM

— patent US12065442B2, “Tropomyosin receptor kinase (TRK) degradation compounds and methods of use” (Cullgen (Shanghai), Inc., priority 2018, dated 2024)
